Data as given in patent US5206234A, “Benzolactam analogs as antagonists of CCK” (priority 1991, dated 1993).

Columns and labels:
anxiety (mice) = experiment: Black/white exploration test (anxiolytic activity); assay type: in vivo, mouse (male DBA2)
From the text: The black/white exploration test [Crawley et al. Pharmacology, Biochemistry and Behav. 13, 167 (1980)] is a simple animal model of anxiety. Rodents placed in a two compartment box which consists of a brightly lit, white painted side and a dimly lit, black painted side, display a marked preference for the black side of the apparatus. This behavior is caused by the aversive properties of the brightly lit, white painted section. Classical anxiolytic drugs [such as diazepam, see Crawley, supra] and novel anxiolytic drugs [such as 5HT3 antagonists, see Jones et al. Br. J. Pharm.
A. Naive male DBA2 mice (25-30) were housed on a reversed light/dark cycle and tested during the dark phase of the cycle under dim red light. The apparatus consisted of an open topped box (40 cm long×27 cm wide×27 cm high) divided into a small area (2/5) and a large area (3/5) by a partition that extended 20 cm above the walls. There was a 7.5×7.5 cm opening in the partition at floor level. The small compartment was painted black and the large compartment white. The floor of each compartment was marked into 9 cm squares. The white compartment was illuminated by a 100 W tungsten bulb 17 cm above the box and the black compartment by a similarly placed 60 W red bulb.
Animals that had been injected with drug or vehicle were placed individually into the centre of the white area and their behavior observed during a 5 minute period by remote video recording. Four behavioral parameters were recorded every minute: the number of exploratory rears in the white and black sections, the number of line crossings in the black and white sections, the number of transitions between the two sections and the time spent in the black and white sections. Animals were tested in treatment groups of 8-10 and vehicle controls were run on each test day. Data were analysed by ANOVA and Dunnetts test.

[1] = target: T1, CCK receptor (Brain, cerebral cortex) (Cavia porcellus, UniProt H0VZC5); experiment: CCK Receptor Binding (Brain), inhibition of 125I-CCK-33 binding; design: species or system guinea pig (Male Hartley); conditions: head prints ^25 I-CCK; guinea pig cerebral cortex
T1 construct: Cerebral cortex was dissected and used as a receptor source; from tissue; host or cells: cerebral cortex membranes of male Hartley guinea pigs
T1 sequence (H0VZC5 1-426): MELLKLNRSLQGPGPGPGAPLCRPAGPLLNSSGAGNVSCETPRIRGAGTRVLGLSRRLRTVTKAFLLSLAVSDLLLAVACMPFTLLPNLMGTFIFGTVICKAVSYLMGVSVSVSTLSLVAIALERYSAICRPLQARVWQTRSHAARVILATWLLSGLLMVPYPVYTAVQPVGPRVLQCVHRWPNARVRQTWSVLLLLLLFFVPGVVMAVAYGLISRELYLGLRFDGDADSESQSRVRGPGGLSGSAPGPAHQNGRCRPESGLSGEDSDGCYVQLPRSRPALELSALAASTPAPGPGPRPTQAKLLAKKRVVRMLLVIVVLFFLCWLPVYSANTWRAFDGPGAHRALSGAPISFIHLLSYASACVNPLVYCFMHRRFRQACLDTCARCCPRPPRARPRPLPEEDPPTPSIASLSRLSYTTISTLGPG
Procedure: CCK-33 was radiolabeled and the binding was performed according to the description for the pancreas method with modifications according to Saito et al., J. Neurochem. 37:483-490, 1981.
Male Hartley guinea pigs (300-500 g) were sacrificed by decapitation and the brains were removed and placed in ice-cold 50 mM Tris HCl plus 7.58 g/l Trizma-7.4 (pH 7.4 at 25° C.). Cerebral cortex was dissected and used as a receptor source. Each gram of fresh guinea pig brain tissue was homogenized in 10 ml of Tris/Trizma buffer with a Brinkman polytron PT-10. The homogenates were centrifuged at 42,000 g for 15 minutes. Pellets were resuspended in Tris Buffer, centrifuged as above and resuspended in 200 volumes of binding assay buffer (10 mM N-2-hydroxyethyl-piperazine-N'-2-ethane sulfonic acid (HEPES), 5 mM MgCl2, 0.25 mg/ml bacitracin, 1 mM ethylene glycol-bis-(β-aminoethylether-N,N'-tetraacetic acid) (EGTA), and 0.4% bovine serum albumin (BSA)). […] All assays were run in duplicate or triplicate. The reaction mixtures were incubated at 25° C. for 2 hours and centrifuged in a Beckman Microfuge (4 minutes) immediately after adding 1 ml of ice-cold incubation buffer. The supernatant was aspirated and discarded, pellets were counted with a Beckman gamma 5000.

[2] = target: T2, Gastrin receptor (Gastric Glands) (Cavia porcellus, UniProt H0VZC5); experiment: Gastrin Receptor Binding in Guinea Pig Gastric Glands; design: species or system guinea pig (male Hartley); conditions: head prints ^25 I-Gastrin, read-out: Receptor binding IC50, 125I-Gastrin Gastric Glands
T2 construct: from tissue; host or cells: gastric mucosal glands of male Hartley guinea pigs
T2 sequence (H0VZC5 1-426): T1 sequence (H0VZC5 1-426)
Procedure: Guinea pig gastric mucosal glands were prepared by the procedure of Berglingh and Obrink Acta Physiol. Scand. 96: 150 (1976) with a slight modification according to Praissman et al. C. J. Receptor Res. 3: (1983). Gastric mucosa from guinea pigs (300-500 g body weight, male Hartley) were washed thoroughly and minced with fine scissors in standard buffer consisting of the following: 130 mM NaCl, 12 mM NaHCO3, 3 mM NaH2 PO4, 3 mM Na2 HPO4, 3 mM K2 HPO4, 2 mM MgSO4, 1 mM CaCl2, 5 mM glucose and 4 mM L-glutamine, 25 mM HEPES at pH 7.4. The minced tissues were washed and then incubated in a 37° C. shaker bath for 40 minutes with the buffer containing 0.1% collagenase and 0.1% BSA and bubbled with 95% O2 and 5% CO2. The tissues were passed twice through a 5 ml glass syringe to liberate the gastric glands, and then filtered through 200 mesh nylon. The filtered glands were centrifuged at 270 g for 5 minutes and washed twice by resuspension and centrifugation.
The washed guinea pig gastric glands prepared as above were resuspended in 25 ml of standard buffer containing 0.25 mg/ml of bacitracin. For binding studies, to 220 μl of gastric glands in triplicate tubes, 10 μl of buffer (for total binding) or gastrin (1 μM final concentration, for nonspecific binding) or test compound and 10 μl of ^125 I-gastrin (NEN, 2200 Ci/mmole, 25 pM final) or ^3 H-pentagastrin (NEN 22 Ci/mmole, 1 nM final) were added. The tubes were aerated with 95% O2 and 5% CO2 and capped. The reaction mixtures after incubation at 25° C. for 30 minutes were filtered under reduced pressure on glass G/F B filters (Whatman) and immediately washed further with 4×4 ml of standard buffer containing 0.1% BSA. The radioactivity on the filters was measured using a Beckman gamma 5500 for ^125 I-gastrin or liquid scintillation counting for ^3 H-pentagastrin.

CCK receptor (Pancreas) = target: T3, CCK receptor (Pancreas) (Rattus norvegicus, UniProt P30551); experiment: CCK Receptor Binding (Pancreas), inhibition of 125I-CCK-33 binding; design: species or system rat (Male Sprague-Dawley); conditions: for IC50: 125I-CCK-33, rat pancreas membranes; for Effect on the 125I-CCK receptor binding assay: added as protease inhibitors
T3 construct: The whole pancreas was dissected free of fat tissue and was homogenized; from tissue; host or cells: pancreas membranes of male Sprague-Dawley rats
T3 sequence (P30551 1-444): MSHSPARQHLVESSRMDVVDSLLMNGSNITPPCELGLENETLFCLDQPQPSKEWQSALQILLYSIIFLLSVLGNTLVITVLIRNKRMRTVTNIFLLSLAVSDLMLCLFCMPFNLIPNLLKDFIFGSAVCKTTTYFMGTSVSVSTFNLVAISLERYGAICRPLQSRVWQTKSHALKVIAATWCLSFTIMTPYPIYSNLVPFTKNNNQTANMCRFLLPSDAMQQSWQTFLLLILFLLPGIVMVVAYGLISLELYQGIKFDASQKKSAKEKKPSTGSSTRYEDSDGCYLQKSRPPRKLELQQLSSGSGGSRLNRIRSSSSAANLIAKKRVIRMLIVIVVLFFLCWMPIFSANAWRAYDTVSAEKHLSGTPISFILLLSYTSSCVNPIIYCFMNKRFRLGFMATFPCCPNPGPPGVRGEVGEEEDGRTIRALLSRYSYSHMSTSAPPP
Procedure: CCK-33 was radiolabeled with ^125 I-Bolton Hunter reagent (2000 Ci/mmole) as described by Sankara et al. (J. Biol. Chem. 254: 9349-9351, 1979). Receptor binding was performed according to Innis and Snyder (Proc. Natl. Acad. Sci. 77, 6917-6921, 1980) with the minor modification of adding the additional protease inhibitors, phenylmethane sulfonyl fluoride and o-phenanthroline. The latter two compounds have no effect on the ^125 I-CCK receptor binding assay.
Male Sprague-Dawley rats (200-350 g) were sacrificed by decapitation. The whole pancreas was dissected free of fat tissue and was homogenized in 20 volumes of ice-cold 50 mM Tris HCl (pH 7.7 at 25° C.) with a Brinkmann Polytron PT 10. The homogenates were centrifuged at 48,000 g for 10 min. Pellets were resuspended in Tris Buffer, centrifuged as above and resuspended in 200 volumes of binding assay buffer (50 mM Tris HCl, pH 7.7 at 25° C., 5 mM dithiothrietol, 0.1 mM bacitracin, 1.2 mM phenylmethane sulfonyl fluoride and 0.5 mM o-phenanthroline). […] All assays were run in duplicate or triplicate. The reaction mixtures were incubated at 37° C. for 30 minutes and centrifuged in a Beckman Microfuge (4 minutes) immediately after adding 1 ml of ice-cold incubation buffer. The supernatant was aspirated and discarded, pellets were counted with a Beckman gamma 5000. For Scatchard analysis (Ann. N.Y. Acad. Sci. 51: 660, 1949), ^125 I-CCK-33 was progressively diluted with increasing concentrations of CCK-33.
A Ki value (dissociation constant of inhibitor) of the compounds of Formula I was estimated.

Row | Compound | IC50 [1] | IC50 (CCK receptor (Pancreas)) | further results
1 | Cc1cccc(NC(=O)N[C@@H]2N=C(c3ccccc3)c3ccccc3N(C)C2=O)c1 [Compound B, (R)-N-(2,3-dihydro-1-methyl-2-oxo-5-phenyl-1H-1,4-benzodiazepin-3-yl)-N'-(3-methylphenyl)urea] |  |  | Difference in time spent in the black and white side (anxiety (mice); 0.005 ug/kg): decreased the difference in time spent in the black and white side; Preference for rearing in the black side (anxiety (mice); 0.05 ug/kg): abolished the preference for rearing in the black side; Active dose range (anxiety (mice); black/white exploration test, mice): 0.005 to 0.05 µg/kg
2 | COc1cccc(NC(=O)NC2CCc3ccccc3N(CC(=O)OC(C)(C)C)C2=O)c1 (centres unmarked) [Example 2] |  | 14000 nM | 
3 | O=C(O)CN1C(=O)C(NC(=O)Nc2cccc3ccccc23)CCc2ccccc21 (centres unmarked) [Example 9, 2,3,4,5-Tetrahydro-3-{[[(1-naphthalenyl)amino]carbonyl]amino}-2-oxo-1H-1-benzazepine-1-acetic acid] |  | 20000 nM | 
4 | CN1CCN(C(=O)CN2C(=O)C(NC(=O)Nc3cccc4ccccc34)CCc3ccccc32)CC1 (centres unmarked) [Example 10, 1-Methyl-4-{[2,3,4,5-tetra-hydro-3-{[[(1-naphthalenyl)amino]carbonyl]amino}-2-oxo-1H-1-benzazepin-1-yl]acetyl}piperazine] |  | 32000 nM | 
5 | c1cnc2c(c1)ccc1cccnc12 [o-phenanthroline, reference compound] |  |  | Effect on the 125I-CCK receptor binding assay (CCK receptor (Pancreas)): no effect
6 | O=S(=O)(F)Cc1ccccc1 [phenylmethane sulfonyl fluoride, reference compound] |  |  | Effect on the 125I-CCK receptor binding assay (CCK receptor (Pancreas)): no effect

Continued by falling IC50 (CCK receptor (Pancreas)), values first:

Row | IC50 [1] | IC50 (CCK receptor (Pancreas)) | Compound | further results
7 | 77000 nM | 13000 nM | Cc1ccc(NC(=O)NC2CCc3ccccc3N(CC(=O)N3CCN(C)CC3)C2=O)cc1 (centres unmarked) [Example 14, 1-Methyl-4-{[2,3,4,5-tetra-hydro-3-{[[(4-methylphenyl)amino}carbonyl]amino}-2-oxo-1H-1-benzazepin-1-yl]acetyl}piperazine] | 
8 | 8600 nM | 2100 nM | COc1cccc(NC(=O)NC2CCc3ccccc3N(CC(=O)O)C2=O)c1 (centres unmarked) [Example 3] | IC50 [2]: 3100 nM
9 |  | 1600 nM | Cc1ccc(NC(=O)NC2CCc3ccccc3N(CC(=O)N3CCCC3)C2=O)cc1 (centres unmarked) [Example 13, 1-{[2,3,4,5-Tetrahydro-3-{[[(4-methylphenyl)amino]carbonyl]amino}-2-oxo-1H-1-benzazepin-1-yl]aceyl}pyrrolidine] | 
10 | 5000 nM | 970 nM | Cc1cccc(NC(=O)NC2CCc3ccccc3N(CC(=O)N3CCN(C)CC3)C2=O)c1 (centres unmarked) [Example 7, 1-Methyl-4-{[2,3,4,5-tetrahydro-3-{[[(3-methylphenyl)amino]carbonyl]amino}-2-oxo-1H-1-benzazepin-1-yl]aceyl}piperazine] | IC50 [2]: 610 nM
11 | 148 nM | 960 nM | CC(C)(C)OC(=O)CN1C(=O)C(NC(=O)Nc2cccc3ccccc23)CCc2ccccc21 (centres unmarked) [Example 8] | IC50 [2]: 480 nM
12 |  | 940 nM | Cc1cccc(NC(=O)NC2CCc3ccccc3N(CC(=O)O)C2=O)c1 (centres unmarked) [Example 5, 2,3,4,5-Tetrahydro-3-{[[(3-methylphenyl)aminol]carbonyl]amino}-2-oxo-1H-1-benzazepine-1-acetic acid] | 
13 | 180 nM | 350 nM | CC(C)(C)OC(=O)CN1C(=O)C(NC(=O)Nc2ccc(Cl)cc2)CCc2ccccc21 (centres unmarked) [Example 1, 1,1-Dimethylethyl 3-{[[(4-chlorophenyl)amino]carbonyl]amino}-2,3,4,5-tetrahydro-2-oxo-1H-1-benzazepine-1-acetic acid ester] | IC50 [2]: 120 nM
14 |  | 80 nM | Cc1cccc(NC(=O)NC2CCc3ccccc3N(CC(=O)N3CCCC3)C2=O)c1 (centres unmarked) [Example 6, 1-{[2,3,4,5-Tetrahydro-3-{[[(3-methylphenyl)amino]carbonyl]amino}-2-oxo-1H-1-benzazepin-1-yl]acetyl}pyrrolidine] | 
15 |  | 12 nM | Cc1cccc(NC(=O)NC2CCc3ccccc3N(CC(=O)OC(C)(C)C)C2=O)c1 (centres unmarked) [Example 4] | 
